Measurements published in US11576979B2, “Pyrrolobenzodiazepine prodrugs and antibody conjugates thereof” (GENENTECH, INC., priority 2016, dated 2023).
Where two headings read alike, the source gives them in different places.

Legend:
DT Diaphorase = target: T1, DT Diaphorase (Homo sapiens, UniProt P15559); assay: DT diaphorase activated payload release (LC-MS MRM quant); type: biochemical; conditions: after 90 minutes incubation
T1 construct: purchased Sigma D1315
Protocol: In addition to the potency evaluation, the release of PBD dimer diaphorase prodrug 1 was evaluated. The release was measured to be 12% after 90 minutes incubation according to the following method. First, a master mix reaction was prepared containing 0.5 uM of the […], […] NADPH […]. Second, the reaction mix was incubated at room temperature for 5, 30, 90 min. […] Finally, data was analyzed using MultiQuant analysis software and standards were calculated using GraphPad Prism 6 linear regression fit.
An in vitro DT diaphorase activated drug release assay was used to measure NADPH depletion. DT diaphorase activated release of Norfloxacin and Payload (PBD) was measured by the in vitro depletion of NADPH. The assay method was modified from the absorbance measurement of NADPH at A340 (Osman et. al, Chemico-Biological Interactions 147 (2004) 99-108) due to the interference of compounds. The depletion of NADPH was measured by monitoring the decrease of fluorescence intensity of NADPH at 480 nm after being excited at 340 nM. […] The fluorescence intensity (RFU) of DNAPH was recorded on M1000 plate reader (Tecan) with excitation at 340 nm and emission at 480 nm. For data analysis, data was analyzed and plotted using Prism GraphPad 6. […]

WSU Cell line = assay: Cell viability, DTD-activated quinone prodrugs (Example 15); type: cell-based
Protocol: (§1) The toxicity of PBD dimer diaphorase prodrug 1, PBD monomer diaphorase prodrug 2, PBD dimer control 1 and PBD monomer control 1 were evaluated against KPL-4 and WSU cell lines for cell viability. The KPL-4 cell line is was a high DTD cell line characterized by NQO1 nRPKM of 839 and the WSU cell line was a low DTD cell line characterized by a NQO1 nRPKM of 1.36. The IC50 ratios are based on the prodrug IC50 value relative to the PBD dimer control.

KPL-4 Cell line = assay: as above; type: cell-based
Protocol: as §1

HCC1395 = assay: CELLTITER GLO cell proliferation assay (Example 6); type: cell-based; conditions: Homo sapiens, Table 4, read-out: IC50 potency HCC1395
HCT-116 = assay: CELLTITER GLO cell proliferation assay (Example 6); type: cell-based; conditions: Homo sapiens, HCT-116; Table 4; read-out: IC50 potency HCT-116
Jurkat = assay: CELLTITER GLO cell proliferation assay (Example 6); type: cell-based; conditions: Homo sapiens, Table 4, read-out: IC50 potency Jurkat
A2058 = assay: Standard cell panel (Table 7B); type: cell-based; conditions: Homo sapiens
Excerpt: (§2) PBD dimer control 1 and PBD dimer control 2 were further evaluated in standard cell panels against a number of cell lines.

HCT 116 = assay: Standard cell panel (Table 7B); type: cell-based; conditions: Homo sapiens
Excerpt: as §2

BJAB/Pgp = assay: Standard cell panel (Table 7B); type: cell-based; conditions: Homo sapiens
Excerpt: as §2

KPL-4 = assay: Standard cell panel (Table 7B); type: cell-based; conditions: KPL4
Excerpt: as §2

DLD-1 = assay: Standard cell panel (Table 7B); type: cell-based; conditions: Homo sapiens
Excerpt: as §2

BJAB = assay: Standard cell panel (Table 7B); type: cell-based; conditions: Homo sapiens
Excerpt: as §2

MDA-MB-231 = assay: Standard cell panel (Table 7B); type: cell-based; conditions: Homo sapiens
Excerpt: as §2

MES-SA = assay: Standard cell panel (Table 7B); type: cell-based; conditions: Homo sapiens
Excerpt: as §2

MES-SA/Dx5 = assay: Standard cell panel (Table 7B); type: cell-based; conditions: Homo sapiens
Excerpt: as §2

HL-60 = assay: Standard cell panel (Table 7B); type: cell-based; conditions: Homo sapiens
Excerpt: as §2

[1] = system: double strand DNA Oligos 1 and 2; assay: DNA oligo binding, LC/MS/UV; conditions: 100 uM compound, 100 uM DNA, 1 hour, 37 C
Protocol: For DNA binding determination, the compounds were incubated at 100 μM with 100 μM double strand DNA Oligos 1 and 2 for 1 hour in 10 mM Bis-Tris, pH 7.1 at 37° C. The single strand DNA Oligos (5′-TATAGAATCTATA-3′ and 3′-ATATCTTAGATAT-5′) were synthesized at Genentech. The samples were analyzed by LC/MS/UV (210-450 nm) on Sciex TripleTOF 5600 on a Hypersil Gold C18 column (100×2.1, 1.9 Thermo Scientific). The column was eluted at 0.4 mL/min by a gradient of buffer A (50 mM hexafluoro-isopropanol and 15 mM diisopropylethylamine) to buffer B (50% A and 50% of 1:1 methanol:acetonitrile), 5% 0-0.5 min, 5-25% B 0.5-25 min, 25-95% B 25-40 min, and to 95% B 40-42 min. The % remaining was an average of the starting DNA oligos remaining in incubations (n=2). The products were characterized by LC/MS in a negative ESI ion mode.

SK-BR-3 = assay: CellTiter-Glo toxicity, 3 days (Example 7); type: cell-based; conditions: Homo sapiens, SK-BR-3, 72 h, read-out: SK-BR-3 IC50 (nM)
Protocol: The toxicity of PBD monomer disulfide prodrugs 1 to 4, PBD dimer disulfide prodrugs 1 and 4, PBD monomer control 1 and PBD dimer control 1 were evaluated against SK-BR-3 cell cultures. […] The HER2-positive breast cancer cell line, SK-BR-3, was obtained internally at Genentech after having been verified by sequence analysis. The cells were grown at 37 Celsius in DMEM+10% FBS supplemented with 2 mM L-glutamine for the duration of this assay. On the first day of the experiment, designated “Day −1”, SK-BR-3 cells were harvested from tissue culture flasks, counted, and then seeded into 96-well plates at a concentration of 7,500 cells per well. The next day, designated “Day 0”, cell culture media was removed from the cells and replaced with 100 uL of fresh media containing a serial dilution (1:3) of the compounds in Table 5 below. The plates were then returned to the 37 Celsius incubator and allowed to incubate for 3 days. On “Day 3” of the assay, the plates were removed from the incubator and allowed to equilibrate to room temperature before adding 100 uL of room-temperature CellTiter-Glo reagent (Promega). The plates were then agitated at 300 rpm for 10 minutes. The luminescence signal generated from this reaction was recorded on an Envision plate reader (Perkin-Elmer). The data were arranged in Excel (Microsoft) and graphed in Kaleidagraph (Synergy Software).

SW 900 = assay: Standard cell panel (Table 7B); type: cell-based; conditions: Homo sapiens, SW900
Excerpt: as §2

T-47D = assay: Standard cell panel (Table 7B); type: cell-based; conditions: Homo sapiens, T47D
Excerpt: as §2

HCC1937 = assay: Standard cell panel (Table 7B); type: cell-based; conditions: Homo sapiens
Excerpt: as §2

NCI-H1781 = assay: Standard cell panel (Table 7B); type: cell-based
Excerpt: as §2

HCC1569 X2 = assay: Standard cell panel (Table 7B); type: cell-based; conditions: Homo sapiens
Excerpt: as §2

UACC-257 = assay: CellTiter-Glo toxicity, 4 days (Example 9); type: cell-based; conditions: Homo sapiens, UACC-257, 96 h, 4 days of drug incubation; Table 7A
Method in brief: (§3)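 Cells were seeded in 384-well plates, dosed 24 h later and incubated with drug for 4 days. Viability was read as ATP luminescence by CellTiter-Glo and normalised to untreated controls. IC50 is the concentration giving 50% of maximum cell killing.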

Igrov-1 = assay: CellTiter-Glo toxicity, 4 days (Example 9); type: cell-based; conditions: Homo sapiens, IGROV-1, 96 h, 4 days of drug incubation; Table 7A
Method in brief: as §3

T1 sequence (P15559 whole entry): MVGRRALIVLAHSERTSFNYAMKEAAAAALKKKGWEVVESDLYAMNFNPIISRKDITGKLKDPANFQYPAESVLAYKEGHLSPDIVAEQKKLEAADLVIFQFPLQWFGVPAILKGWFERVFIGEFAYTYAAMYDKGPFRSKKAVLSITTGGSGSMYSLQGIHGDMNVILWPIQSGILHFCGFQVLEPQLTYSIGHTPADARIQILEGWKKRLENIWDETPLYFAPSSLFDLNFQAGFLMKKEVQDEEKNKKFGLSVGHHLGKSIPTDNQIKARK

`C=C1C[C@H]2C=Nc3cc(OCCCCCOc4cc5c(cc4OC)C(=O)N4CC(=C)C[C@H]4C(O)N5C(=O)OCc4cc5c(n4C)C(=O)C=C(OC)C5=O)c(OC)cc3C(=O)N2C1` (some centres unmarked) [PBD dimer diaphorase prodrug 1] gave a release (DT Diaphorase) of 12%, an IC50 (WSU Cell line; WSU Cell line (low DTD), Table 10, read-out: IC50 Potency) of 8.56 nM and an IC50 (KPL-4 Cell line; KPL4, KPL-4 Cell line (high DTD), Table 10, read-out: IC50 Potency) of 35.5 nM. It also gave an IC50 (HCC1395) of 14.2 nM, an IC50 (HCT-116) of 21.3 nM and an IC50 (Jurkat) of 2.05 nM.

Compound `C=C1C[C@H]2CNc3cc(OCCCCCOc4cc5c(cc4OC)C(=O)N4CC(=C)C[C@H]4CN5)c(OC)cc3C(=O)N2C1` [PBD dimer control 2] has an IC50 (A2058) of 5.3 nM, an IC50 (HCT 116) of 15 nM and an IC50 (BJAB/Pgp) of 53.7 nM. It also gave an IC50 (KPL-4) of 67.4 nM, an IC50 (DLD-1) greater than 100 nM and an IC50 (BJAB) of 4.9 nM. For the same compound, the IC50 (MDA-MB-231) was 73.2 nM, the IC50 (MES-SA) was 10 nM and the IC50 (MES-SA/Dx5) was greater than 100 nM. The IC50 (HL-60) was 2.4 nM and the “% DNA oligo remaining” value [1] was 100%.

`C=C1C[C@H]2C=Nc3cc(OCCCCCOc4cc5c(cc4OC)C(=O)N4CC(=C)C[C@H]4C=N5)c(OC)cc3C(=O)N2C1` [PBD dimer control 1] gave an IC50 (SK-BR-3) of 0.144 nM, an IC50 (SW 900) of 0.078 nM and an IC50 (T-47D) of 0.032 nM. For the same compound, the IC50 (KPL-4) was 0.053 nM, the IC50 (HCC1937) was 0.15 nM and the IC50 (BJAB) was 0.015 nM. For the same compound, the IC50 (MES-SA) was 0.028 nM, the IC50 (MES-SA/Dx5) was 0.56 nM and the IC50 (NCI-H1781) was 0.011 nM. For the same compound, the IC50 (HCC1569 X2) was 0.097 nM, the IC50 (UACC-257) was 0.95 nM and the IC50 (Igrov-1) was 0.061 nM. For the same compound, the IC50 (WSU Cell line; read-out: IC50 Potency (nM)) was 0.2 nM, the IC50 (KPL-4 Cell line; KPL4, read-out: IC50 Potency (nM)) was 2.09 nM and the “% DNA oligo remaining” value [1] was less than 1%.
